# Test results as given in the NIST ThermoML archive (doi:10.1021/je700266n).
# ± gives the expanded uncertainty stated by the source.
# Settings: 101 kPa, Liquid
mass density (293.15 K),mass density (298.15 K),mass density (303.15 K),mass density (308.15 K),mass density (313.15 K),mass density (323.15 K),mass density (333.15 K),mass density (343.15 K),SMILES
804.97 ± 0.65 kg/m3,801.01 ± 0.66 kg/m3,796.89 ± 0.67 kg/m3,792.83 ± 0.68 kg/m3,789.07 ± 0.69 kg/m3,780.74 ± 0.71 kg/m3,771.75 ± 0.73 kg/m3,762.86 ± 0.75 kg/m3,CCCO [propan-1-ol]
782.3 ± 0.7 kg/m3,776.93 ± 0.71 kg/m3,771.44 ± 0.73 kg/m3,765.97 ± 0.74 kg/m3,760.68 ± 0.75 kg/m3,749.73 ± 0.78 kg/m3,738.19 ± 0.81 kg/m3,726.94 ± 0.83 kg/m3,CC#N [acetonitrile]
878.23 ± 0.48 kg/m3,873.11 ± 0.49 kg/m3,867.59 ± 0.5 kg/m3,862.21 ± 0.52 kg/m3,856.82 ± 0.53 kg/m3,846.05 ± 0.55 kg/m3,835.76 ± 0.58 kg/m3,824.89 ± 0.6 kg/m3,c1ccccc1 [benzene]
